Values quoted from earlier work, collected in article PMC2884396 (Journal of medicinal chemistry, 2010).

Assays:
[1] = test system: androgen receptor (AR); conditions: ref [24]-[27]
[2] = test system: glucocorticoid receptor (GR); conditions: ref [24]-[27]

Cn1c(C#N)ccc1-c1ccc2c(c1)C(C)(C)OC(=S)N2 [Tanaproget (1), Tanaproget]
affinity for AR [1]: very low affinity
affinity for GR [2]: very low affinity
